1 compound from patent publication US20080206761A1, “Ex Vivo Gene Expression in Whole Blood as a Model of Assessment of Individual Variation to Dietary Supplements” (priority 2005, published 2008) can be followed below.

In one experiment the test system is IL-2 mRNA. In words: PHA-induced IL-2 mRNA expression in heparinized whole blood ex vivo. The class given is cell-based, human. Conditions: supplement 30 min, concentrations per footnote. The method, then: (§1) In this embodiment, phytohemagglutinin-induced gene expression of interleukin-2 (IL-2), interleukin-4 (IL-4), and tumor necrosis factor-α (TNF-α) were quantitated in the following manner. Fifty μL of heparinized whole blood was incubated with various dietary supplements for a period of 30 minutes. The following supplements were employed: vitamins A, C, and D, epigallocatechin gallate (from green tea), genistein (from soy), and curcumin (from the spice turmeric). Vitamin A is known to stimulate the immune system. […] Vitamin D appears to have protective effects against certain cancers. Epigallocatechin gallate is a powerful antioxidant, appears to reduce the multidrug resistance found in cancer cells, and preferentially induces apoptosis in neoplastic cells. Genistein has been found in some studies to have anticarcinogenic activity; possible mechanisms of action include upregulation of apoptosis, inhibition of angiogenesis, inhibition of DNA topoisomerase II and inhibition of protein tyrosine kinases. Curcumin has proapoptotic effects in neoplastic cells and interferes with the activity of the transcription factor NF-κB, which is often highly overexpressed in such cells.
(§2) After incubation with the dietary supplement, 100 μg/mL phytohemagglutinin (PHA) was added and incubation was continued for an additional 2 hours at 37° C. The concentration of each dietary supplement (see Table I, note) was slightly higher than reported blood levels. Then mRNA was purified, cDNA was synthesized, and the levels of IL-2, IL-4, and TNF-α were quantitated by TaqMan real time polymerase chain reaction (PCR) (see Holland, et al., “Detection of specific polymerase chain reaction product by utilizing the 5′ to 3′ exonuclease activity of Thermus aquaticus DNA polymerase,” Proc Natl Acad Sci USA 1991; 88: 7276-80), as described below.
(§3) The mRNA and cDNA were prepared from the whole blood that was exposed to the dietary components, as well as the whole blood which remained unexposed. In brief, home-made 96-well filterplates were placed over collection plates, and 150 μl 5 mM Tris, pH 7.4, was applied. Following centrifugation at 120×g for 1 min at 4° C., 50 μl of blood samples were applied to each well and immediately centrifuged at 120×g for 2 min at 4° C., followed by washing of each well with 300 μl PBS once with centrifugation at 2000×g for 5 min at 4° C. Then, 60 μl stock lysis buffer, containing for example 0.5% N-Lauroylsarcosine, 4×SSC, 10 mM Tris HCl, pH 7.4, 1 mM EDTA, 0.1% IGEPAL CA-630, and 1.791 M guanidine thiocyanate, supplemented with 1% 2-mercaptoethanol (Bio Rad, Hercules, Calif., USA), 0.5 mg/ml proteinase K (Pierce, Rockford, Ill., USA), 0.1 mg/ml salmon sperm DNA (5 Prime Eppendorf/Brinkmann, Westbury, N.Y., USA), 0.1 mg/ml E. coli tRNA (Sigma), a cocktail of 10 mM each of the specific reverse primers shown in Table 2, and standard RNA34 oligonucleotides, were applied to the filterplates, followed by incubation at 37° C. for 10 min. The filterplates were then placed over oligo(dT)-immobilized microplates (GenePlate, RNAture), and centrifuged at 2000×g for 5 min at 4° C. Following overnight storage at 4° C., the microplates were washed with 100 μl plain lysis buffer 3 times, followed by 150 μl of wash buffer (0.5 M NaCl, 10 mM Tris, pH 7.4, 1 mM EDTA) 3 times at 4° C. The cDNA was directly synthesized in each well by adding 30 μl of buffer containing 1×RT-buffer, 1.25 mM each of dNTP, 4 units rRNasin, and 80 units of MMLV reverse transcriptase (Promega) (without primers), and incubation at 37° C. for 2 hours. The specific primer-primed cDNA existed in solution, and oligo(dT)-primed cDNA stayed immobilized in the microplate. […]

In another experiment the test system is IL-4 mRNA. Kind of experiment: PHA-induced IL-4 mRNA expression in heparinized whole blood ex vivo. Conditions: for ΔΔCt (mean ± standard deviation, n = 3), IL-4 mRNA: supplement 30 min, then 100 μg/mL PHA 2 h, concentrations per footnote. The class given is cell-based, human. The method, then:
as §1, §2, §3

`CC1=C(/C=C/C(C)=C/C=C/C(C)=C/CO)C(C)(C)CCC1` [VA, vitamin A]: the “ΔΔCt (mean ± standard deviation, n = 3), IL-2 mRNA” value with IL-2 mRNA (Subject 1, then 100 μg/mL PHA 2 h 37° C., negative = increased expression) is on record as −0.98 ± 0.04; with IL-2 mRNA (Subject 2, then 100 μg/mL PHA 2 h), −1.61 ± 0.32; with IL-2 mRNA (Subject 3, then 100 μg/mL PHA 2 h) it was 0.49 ± 0.33; in the experiment with IL-2 mRNA (Subject 4, then 100 μg/mL PHA 2 h), −0.29 ± 0.21; in the experiment on IL-2 mRNA (Subject 5, then 100 μg/mL PHA 2 h) it was −1.16 ± 0.02; in the experiment with IL-2 mRNA (Subject 6, then 100 μg/mL PHA 2 h) it was −0.26 ± 0.20. In the experiment on IL-2 mRNA (Subject 7, then 100 μg/mL PHA 2 h), the “ΔΔCt (mean ± standard deviation, n = 3), IL-2 mRNA” value is −0.66 ± 0.35. Also, the “ΔΔCt (mean ± standard deviation, n = 3), IL-4 mRNA” value is listed as −2.14 ± 0.08 in the experiment with IL-4 mRNA (Subject 1); −1.56 ± 0.34 with IL-4 mRNA (Subject 2); −0.15 ± 0.40 in the experiment on IL-4 mRNA (Subject 3); −0.98 ± 0.41 in the experiment with IL-4 mRNA (Subject 4); −1.24 ± 0.13 in the experiment on IL-4 mRNA (Subject 5); −0.65 ± 0.09 in the experiment on IL-4 mRNA (Subject 6). For the same compound, in the experiment with IL-4 mRNA (Subject 7), the “ΔΔCt (mean ± standard deviation, n = 3), IL-4 mRNA” value is given as −1.15 ± 0.39. Further, the “effect on PHA-induced IL-4 expression, in words” value in the experiment on IL-4 mRNA (summary over 7 subjects of Table I) is reported as “enhanced IL-4 expression, with 1-3 exceptions”.
